Common to all, as to assay type: in vivo
One assay concerns Septoria tritici. In words: Septoria tritici-test (wheat)/preventive. The note with it: preventive spray, evaluated 21 days after inoculation. The procedure:
Septoria tritici-Test (Wheat)/Preventive
(§1) Solvent: 49 parts by weight of n,n-dimethylacetamid
(§2) Emulsifier: 1 part by weight of alkylaryl polyglycol ether
(§3) To produce a suitable preparation of active compound, 1 part by weight of active compound or active compound combination is mixed with the stated amounts of solvent and emulsifier, and the concentrate is diluted with water to the desired concentration.
(§4) To test for preventive activity, young plants are sprayed with the preparation of active compound or active compound combination at the stated rate of application.
After the spray coating has been dried, the plants are sprayed with a spore suspension of Septoria tritici. The plants remain for 48 hours in an incubation cabinet at approximately 20° C. and a relative atmospheric humidity of approximately 100% and afterwards for 60 hours at approximately 15° C. in a translucent incubation cabinet at a relative atmospheric humidity of approximately 100%.
The plants are placed in the greenhouse at a temperature of approximately 15° C. and a relative atmospheric humidity of approximately 80%.
The test is evaluated 21 days after the inoculation. 0% means an efficacy which corresponds to that of the control, while an efficacy of 100% means that no disease is observed.

Assay [1] has as its system larvae of the diamondback moth (Plutella xylostella). The assay is described as follows: Plutella xylostella test (sprayed cabbage leaves). As for the experimental part: (§5) Solvent: 7 parts by weight of dimethylformamide
(§6) Emulsifier: 2 parts by weight of alkylaryl polyglycolether
(§7) To produce a suitable preparation of active compound, 1 part by weight of active compound is mixed with the stated amount of solvent and emulsifier, and the concentrate is diluted with emulsifier-containing water to the desired concentration.
Cabbage leaves (Brassica oleracea) are treated by being sprayed into the preparation of the active compound of the desired concentration and are infested with larvae of the diamondback moth (Plutella xylostella) as long as the leaves are still moist.
After the specified period of time, the mortality in % is determined. 100% means that all the caterpillars have been killed; 0% means that none of the caterpillars have been killed.

Assay [2] has as its system Fusarium nivale (var. majus). The assay is described as follows: Fusarium nivale (var. majus)-test (wheat)/preventive. The note with it: preventive spray, evaluated 5 days after inoculation. The procedure: Fusarium nivale (Var. majus)-Test (Wheat)/Preventive
as §1, §2, §3, §4
After the spray coating has been dried, the plants are slightly injured by using a sandblast and afterwards they are sprayed with a conidia suspension of Fusarium nivale (var. majus).
The plants are placed in the greenhouse under a translucent incubation cabinet at a temperature of approximately 10° C. and a relative atmospheric humidity of approximately 100%.
The test is evaluated 5 days after the inoculation. 0% means an efficacy which corresponds to that of the control, while an efficacy of 100% means that no disease is observed.

Assay [3] concerns two spotted spidermites (Tetranychus urticae). The assay is described as follows: Tetranychus urticae test (sprayed French bean leaves). The procedure: as §5, §6, §7
French bean leaves (Phaseolus vulgaris) which are heavily infested with all stages of the two spotted spidermites (Tetranychus urticae) are treated by being sprayed into the preparation of the active compound of the desired concentration.
After the specified period of time, the mortality in % is determined. 100% means that all the spider mites have been killed; 0% means that none of the spider mites have been killed.

[4] abbreviates: 48 h, read-out: Mortality in % after 2d.
Where [5] appears, read: 48 h, after 2 d, read-out: Mortality in % after 2d.
The mark [6] stands for this setting: 96 h, after 4 d, read-out: Mortality in % after 4d.
Setting [7] is: 96 h, read-out: Mortality in % after 4d.

A word on the mortality: it is the percentage killed.

Molecules are shown by their SMILES. Read-outs that look alike come from different tables or passages of the source.

For the compound `O=[N+]([O-])/N=C1\NCCN1Cc1ccc(Cl)nc1` [Imidacloprid, imidacloprid], the “Efficacy in % found” value in the assay on Septoria tritici (500 g/ha) is 22%. Also, the “Efficacy in % found” value with Septoria tritici (1000 g/ha) was 22%. Moreover, in assay [1] (setting [4]), the mortality at 20 ppm was found to be 0% and the mortality at 100 ppm is 20%.

Consider `N#Cc1ccccc1NC(=O)c1snc(Cl)c1Cl` [Isotianil, 3,4-dichloro-N-(2-cyanophenyl)-5-isothiazolecarboxamide], for which the “Efficacy in % found” value in assay [2] (1000 g/ha) is given as 25%; in the assay on Septoria tritici (500 g/ha), 33%; in the assay on Septoria tritici (1000 g/ha), 33%. For the same compound, the mortality at 200 ppm worked out at 5% in assay [1] (setting [5]), 5% in assay [1] (setting [6]), 0% in assay [3] (setting [5]) and 0% in assay [3] (setting [6]).

Take `CCC(C)(C)C(=O)OC1=C(c2ccc(Cl)cc2Cl)C(=O)OC12CCCCC2` [Spirodiclofen, spirodiclofen]: the “Efficacy in % found” value is reported as 13% in assay [2] (250 g/ha) and 22% in the assay on Septoria tritici (250 g/ha). For the same compound, the figures for the mortality at 20 ppm in assay [1] (setting [7]) and in assay [3] (setting [4]) were 15% and 30%, respectively.

As for `Cc1cc(C)c(C2=C(OC(=O)CC(C)(C)C)C3(CCCC3)OC2=O)c(C)c1` [Spiromesifen, spiromesifen], the “Efficacy in % found” value in assay [2] (250 g/ha) is listed as 38%. The mortality at 500 ppm in assay [1] (setting [7]) amounted to 25%. The mortality at 100 ppm in assay [3] (setting [7]) is 75%.

For the compound `CCOC(=O)OC1=C(c2cc(C)ccc2C)C(=O)N[C@]12CC[C@@H](OC)CC2` [Spirotetramat, spirotetramat], the “Efficacy in % found” value in the assay on Septoria tritici (250 g/ha) was determined as 22%. Also, the mortality at 20 ppm is 20% in assay [1] (setting [4]) and 55% in assay [3] (setting [7]).

(Values after patent US8652997B2, “Active compound combinations” (Bayer CropScience AG, priority 2009, dated 2014).)
